The record followed here is patent US20160031937A1, “NEURAL REGENERATION PEPTIDES AND USES THEREFOR” (CURONZ HOLDINGS COMPANY LIMITED, priority 2013, published 2016).

In assay [1] the test system is human DU-145 prostate cancer cells. Nature of the assay: DU-145 Boyden chamber motility bioassay. Type of assay: cell-based. The note with it: 0.1 ng/ml NRP2945 adhered to Boyden chamber bottom plate, 24 hours of incubation. The text has this: Human epithelial DU-145 cells were obtained from ATCC (HTB-81). The DU-145 cell line was originally isolated from a metastatic prostate-derived cancer formed in the brain. The cells are adherent, and co-express CXCR4 and CCR3 receptors similar to neuroblasts and neurons. For this experiment, DU-145 cells were cultivated in ATCC-formulated Eagle's Minimum Essential Medium with 10% FBS in 5% CO2 at 37′C. The cells were then subcultivated as follows.
The media was removed and discarded. The cell layer was briefly rinsed with 0.25% (w/v) trypsin and 0.5 mM EDTA to remove all remaining trypsin inhibitors from the serum. To each flask, 2-3 ml of trypsin-EDTA solution was added. This was incubated at room temperature.
The cells were observed under an inverted microscope until dislodgement (between 10-15 minutes). Shaking was avoided to prevent the cells from clumping. […]
The Boyden chamber inserts (Corning) were coated for 2 hours at 37° C. with […] poly-D-lysine (PDL; culture grade from Invitrogen). […] The coated Boyden chamber could then be refrigerated, stored, and ready for cell seeding. […]
Cells were counted and 50,000 cells were seeded into one insert of a 12-well Boyden chamber. […]
DU-145 cells attached to the lower insert membrane were visualized and counted with standard cell visualization methods using hematoxyclin staining. […]

Assay [2] relates to NRP 13q13.2 gene expression. Nature of the assay: NRP 13q13.2 gene expression by semi-quantitative RT-PCR in NTERA-2 cells. Type of assay: cell-based, human. As for the experimental part:
mRNA was extracted according to standard procedures (TRIzole® from Invitrogen or RNeasy Mini from Qiagen). The mRNA fraction was subjected to DNase I treatment using DNaseI incubation mixture. For this treatment, 10 μl DNaseI stock plus 70 μl buffer was added to mRNA preparation and incubated for 5 minutes at room temperature. cDNA synthesis was then carried out according to standard procedures (SuperScript® III Reverse Transcriptase from Invitrogen).
The optimized RT-PCR strategy used an intron-spanning forward primer with high GC-content and TM (78° C.) and a reverse primer with a lower TM (60° C.). These primers are shown in FIG. 10, and also further below. The mRNA was treated with DNase I before starting the synthesis of cDNA, as the intron-spanning primer only bridged an intron of 9 nucleic acids.
The expected RT-PCR product was 221 by in length. PCR conditions included annealing at 58° C. and 36 total cycles. Samples were incubated at 94° C. for 5 minutes as the start of the GeneAmp® cycler operation. The 36 cycles included the sequence: 94° C. for 30 seconds; 58° C. for 30 seconds; 72° C. for 30 seconds; followed by cooling to 15° C. at the end of the PCR.
The PCR-reaction included: 10× buffer (2.50 μl), 50 mM MgCl2 (0.75 μl), 10 mM dNTPs (0.50 μl), Primer 1 (0.50 μl), Primer 2 (0.50 μl), Taq Polymerase (0.10 μl), cDNA (1.00 μl ), H2O (19.15 μl), to yield a total volume of 25.00 μl. Taq DNA Polymerase was sourced from Invitrogen (Platinum® Taq Polymerase).
NTERA-2 (ATCC No. CRL-1973) is a human carcinoma derived pluripotent cell line that has only single copies of chromosome 1, 10, 11 and 13. This was the impetus for using 36 cycles of PCR for detection of NRP expression.
Undifferentiated NTERA-2 cells were obtained. Frozen stocks were prepared with a maximum of 2 passages. NRP expression could be assessed in cells having up to 4-5 passages. The cell culture medium included ATCC-formulated DMEM plus 10% FCS. The medium was exchanged every 2-3 days. For passaging, cells were dislodges by scraping and then transferred into 75cm^2 flasks. An initial seeding included 5 million cells in 12-15 ml of cell medium per flask.
Subcultivation was performed for gene expression tests. For subcultivation, cells were dislodged by scraping and then gathered by centrifugation at 1500 rpm for 7 minutes, at 4° C. The media was discarded and the cells were resuspended in 16 ml fresh DMEM/10%FBS. The expected yield was 12-15 million cells in the flask. Thus, the resuspended cells were at a concentration of about 1 million cells per ml.
For passage 3, the remaining 4 ml of cell suspension plus 8 ml culture medium was transferred into new T75 cultivation flask.
[…] All conditions were applied for 15 minutes, 30 minutes, and 60 minutes.
mRNA was then collected. Cells were washed once at the end of the treatment with subsequent cell scraping. Cells were passed through 25-gauge needle into a 15 ml falcon tube. Falcon tube cell content was aspirated, washed once with DMEM, followed by trypsinization. […]
Centrifugation was carried out for 7 minutes at 1500 rpm, at 4° C. The pellets were then ready to be stored either at -80° C. or in liquid nitrogen until RNA extraction.
For RNA extraction, thawed cell pellets were prepared according to manufacturer's instructions (RNeasy Mini from Qiagen). RNA concentration was determined by NanoDropTM. […] For synthesis of sufficient quantities of cDNA, the RNA concentration in the cell samples was ensured to be between 10-20 ng/μl. […]

Setting [3] is: normoxic NTERA-2 cells, 1 pM NRP2945.

Square brackets hold non-standard residues; d marks the D form. Ends that are not written are not given here. Aib = CC(C)(N)C(=O)O Where only a bound is given, the exact number is not on record here.

On to “Gly Arg Arg Ala Ala Pro Gly Arg Aib Gly Gly (GRRAAPGR[Aib]GG) [NRP2945, synthetic 11-mer peptidomimetic optimized for stability and pharmacokinetics]”, for which the “decrease of migrating cells” value in assay [1] is on record as 36%. Besides, in assay [2] (NTERA-2 cells, 100 pM NRP2945), the “time to stimulated endogenous NRP gene expression after administration” value was 5 to 10 min. Besides, the “NRP 13q13.2 gene expression during oxidative stress” value in assay [2] (NTERA-2 cells, 0.5 mM 3-NP with simultaneous 1 pM NRP2945) is “up-regulated after 15 minutes and stays elevated during the period of analysis”. For the same substance, the “time frame of exposure for up-regulation of endogenous NRP gene expression (13q13.2)” value in assay [2] (human NTERA-2 cells, autocrine, unpublished results) was not above 10 min. Moreover, in assay [2] (setting [3]), the “gene expression of NRP 13q13.2” value is on record as “highly elevated after only 15 minutes” and the “time of peak NRP 13q13.2 gene expression after peptide contact” value turned out to be 30 min.
